Results: ChEMBL document CHEMBL5230154, “Chemical probe of AHL modulators on quorum sensing in Gram-Negative Bacteria and as antiproliferative agents: A review” (Eur J Med Chem, 2021)

Legend:
[1] = target: T1, Transcriptional activator protein LuxR (Vibrio fischeri (strain ATCC 700601 / ES114), UniProt P35327); test: Antagonist activity against LuxR mediated quorum sensing system in Vibrio fischeri ES114 expressing luxI assessed as decrease in luminescence intensity incubated for 4 to 8 hrs by bioluminescence analysis; set-up: species or system Aliivibrio fischeri
T1 sequence (P35327 whole entry): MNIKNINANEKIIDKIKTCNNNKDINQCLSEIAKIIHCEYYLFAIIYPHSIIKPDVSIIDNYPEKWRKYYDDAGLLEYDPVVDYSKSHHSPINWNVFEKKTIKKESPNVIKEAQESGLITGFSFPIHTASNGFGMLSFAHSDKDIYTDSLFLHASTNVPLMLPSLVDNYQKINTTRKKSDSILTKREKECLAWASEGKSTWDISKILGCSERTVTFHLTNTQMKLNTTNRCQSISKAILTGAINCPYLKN

[2] = target: T2, Transcriptional activator protein LasR (Pseudomonas aeruginosa (strain ATCC 15692 / PAO1 / 1C / PRS 101 / LMG12228)) (UniProt P25084); test: Antagonist activity against LasR-mediated quorum sensing system in Pseudomonas aeruginosa PAO1 assessed as inhibition of pyocyanin production at 200 uM incubated for 13 hrs by spectrophotometric assay; conditions: filed as antagonist
T2 sequence (whole entry): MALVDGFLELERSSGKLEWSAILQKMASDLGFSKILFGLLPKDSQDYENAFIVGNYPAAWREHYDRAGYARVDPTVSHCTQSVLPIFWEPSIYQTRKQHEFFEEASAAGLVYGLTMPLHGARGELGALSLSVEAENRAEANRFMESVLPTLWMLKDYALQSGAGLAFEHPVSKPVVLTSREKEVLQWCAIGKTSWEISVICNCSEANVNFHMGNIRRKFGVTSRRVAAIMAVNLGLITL

[3] = test system: Pseudomonas aeruginosa; test: Antibiofilm activity against Pseudomonas aeruginosa PAO1 NCTC 10332 assessed as inhibition of biofilm formation incubated for 24 hrs by crystal violet staining based assay; assay type: functional, organism-based; conditions: PAO1 NCTC 10332, 24 h
[4] = test system: Serratia marcescens; test: Antibiofilm activity against Serratia marcescens ATCC 27117 assessed as inhibition of biofilm formation incubated for 24 hrs by crystal violet staining based assay; assay type: functional, organism-based; conditions: ATCC 27117, 24 h
[5] = Cytotoxicity against human PBMC cells assessed as reduction in cell viability at 100 uM by MTT assay; assay type: toxicity, cell-based
[6] = test system: Pseudomonas aeruginosa; test: Inhibition of Pseudomonas aeruginosa MH602 harboring PlasB::gfp(ASV) reporter assessed as decrease in GFP expression at 125 uM incubated for 22 hrs by fluorescence microplate reader analysis
[7] = test system: Pseudomonas aeruginosa; test: Inhibition of Pseudomonas aeruginosa MH602 harboring PlasB::gfp(ASV) reporter assessed as decrease in GFP expression at 250 uM incubated for 22 hrs by fluorescence microplate reader analysis
[8] = Agonist activity against RhlR in Escherichia coli expressing JLD271/pJN105R2/pSC11-rhlI using CPRG as substrate by spectrophotometric assay
[9] = target: T3, HTH-type quorum-sensing regulator RhlR (Pseudomonas aeruginosa (strain ATCC 15692 / PAO1 / 1C / PRS 101 / LMG12228), UniProt P54292); test: Agonist activity against RhlR in Pseudomonas aeruginosa PAO-JP2 expressing prhlI-LVAgfp using CPRG as substrate by spectrophotometric assay
T3 sequence (P54292 whole entry): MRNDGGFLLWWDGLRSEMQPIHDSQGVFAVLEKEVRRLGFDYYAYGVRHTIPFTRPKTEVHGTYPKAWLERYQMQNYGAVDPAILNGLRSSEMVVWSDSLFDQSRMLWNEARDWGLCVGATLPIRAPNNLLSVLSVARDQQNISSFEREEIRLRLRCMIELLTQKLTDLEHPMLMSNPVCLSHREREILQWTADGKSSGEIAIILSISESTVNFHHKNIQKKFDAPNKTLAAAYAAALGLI

[10] = Inhibition of quorum sensing system in Pseudomonas aeruginosa PAO1 assessed as inhibition of elastase production at 15 uM incubated for 12 hrs by Congo red dye based spectrophotometric assay
[11] = Inhibition of quorum sensing system in Pseudomonas aeruginosa PAO1 assessed as inhibition of pyocyanin production at 15 uM incubated for 12 hrs by spectrophotometric assay
[12] = Inhibition of quorum sensing system in Pseudomonas aeruginosa PAO1 assessed as decrease in lasI expression at 15 uM incubated for 12 hrs by real-time fluorescent quantitative PCR analysis
[13] = Inhibition of quorum sensing system in Pseudomonas aeruginosa PAO1 assessed as decrease in pqsR expression at 15 uM incubated for 12 hrs by real-time fluorescent quantitative PCR analysis
[14] = test system: Pseudomonas aeruginosa; test: Inhibition of biofilm formation in Pseudomonas aeruginosa PAO1 incubated for 12 hrs by crystal violet staining based analysis; assay type: functional
[15] = Inhibition of quorum sensing system in Pseudomonas aeruginosa PAO1 assessed as inhibition of rhamnolipid production at 15 uM incubated for 12 hrs by spectrophotometric assay
[16] = Inhibition of quorum sensing system in Pseudomonas aeruginosa PAO1 assessed as decrease in rhlR expression at 15 uM incubated for 12 hrs by real-time fluorescent quantitative PCR analysis
[17] = Inhibition of quorum sensing system in Pseudomonas aeruginosa PAO1 assessed as decrease in lasA expression at 15 uM incubated for 12 hrs by real-time fluorescent quantitative PCR analysis
[18] = test system: Pseudomonas aeruginosa; test: Inhibition of quorum sensing system in Pseudomonas aeruginosa MH602 expressing PlasB::gfp assessed as inhibition of GFP fluorescence expression at 250 uM incubated for 15 hrs by fluorescence microplate reader analysis
[19] = test system: Pseudomonas aeruginosa; test: Inhibition of quorum sensing system in Pseudomonas aeruginosa MH602 expressing PlasB::gfp assessed as inhibition of GFP fluorescence expression at 62.5 uM incubated for 15 hrs by fluorescence microplate reader analysis
[20] = test system: Escherichia coli; test: Inhibition of Escherichia coli MT102 harbouring pJBA132 expressing Gfp assessed as inhibition of GFP fluorescence expression at 125 uM incubated for 15 hrs by fluorescence microplate reader analysis
[21] = test system: Escherichia coli; test: Inhibition of Escherichia coli MT102 harbouring pJBA132 expressing Gfp assessed as inhibition of GFP fluorescence expression at 250 uM incubated for 15 hrs by fluorescence microplate reader analysis
[22] = test system: Escherichia coli; test: Inhibition of Escherichia coli MT102 harbouring pJBA132 expressing Gfp assessed as inhibition of GFP fluorescence expression at 62.5 uM incubated for 15 hrs by fluorescence microplate reader analysis
[23] = target: T4, Transcriptional activator protein LasR (Pseudomonas aeruginosa (strain ATCC 15692 / PAO1 / 1C / PRS 101 / LMG12228), UniProt P25084); test: Antagonist activity against LasR-mediated quorum sensing system in Pseudomonas aeruginosa PAO1 by spectrophotometric assay
T4 sequence (P25084 whole entry): T2 sequence (whole entry)

[24] = Inhibition of quorum sensing system in Pseudomonas aeruginosa PA14 assessed as inhibition of pyocyanin production by UV-vis spectrophotometric assay

O=C(Cc1ccc(Cl)cc1)N[C@H]1CCOC1=O
IC50 [1]: 0.6 µM

CCCCCCCCCC(=O)CC(=O)Nc1cccc(I)c1
inhibition [2]: 67%

NCCCCCCCCCCCCNc1ccnc2cc(C(F)(F)F)ccc12
IC50 [3]: 63 µM | IC50 [4]: 63 µM

O=C(Cc1ccccc1)N[C@H]1CCOC1=O
IC50 [1]: 0.6 µM

CCCCCCCCCC(=O)CC(=O)Nc1cccc(OC)c1
inhibition [2]: 93%

O=C(Cc1ccc(I)cc1)N[C@H]1CCOC1=O
IC50 [1]: 0.6 µM

O=C(CCCNc1ccc(Cl)cc1)NC1CCOC1=O (stereo not drawn)
Activity [5]: 57.4%

O=C1C(=O)N(C(=O)CCl)c2ccccc21
inhibition [6]: 34.7% | inhibition [7]: 60.1%

CCCCC(=O)N[C@H]1CCSC1=O
EC50 [8]: 4.87 µM | EC50 [9]: 3.82 µM

Cc1cccc(NC(=O)NC(=O)CSC(=S)N[C@H]2CCOC2=O)c1
inhibition [10]: 13.7% | inhibition [11]: 34.5% | inhibition [12]: 55.1% | inhibition [13]: 72.5% | inhibition (INH) [14]: 36.2% | inhibition [15]: 28.1% | inhibition [16]: 48.4% | inhibition [17]: 64.1%

O=C(CCCNc1ccc(F)cc1)NC1CCOC1=O (stereo not drawn)
Activity [5]: 49.2%

O=C1C(Cl)=C(Cl)CN1CCc1ccc(O)cc1
inhibition [18]: 74% | inhibition [19]: 32.1%

O=C1C(=O)N(C(=O)CCl)c2ccc([N+](=O)[O-])cc21
inhibition [20]: 60.8% | inhibition [21]: 65.8% | inhibition [22]: 48.5% | inhibition [7]: 57.3%

O=C(CCSc1ccc(Cl)cc1)N[C@H]1CCOC1=O
inhibition [11]: 27.5% | inhibition [12]: 47.9% | inhibition [13]: 53.5% | inhibition (INH) [14]: 34.1% | inhibition [15]: 17.6% | inhibition [17]: 58.5%

C#CNC(=O)C(=O)c1cc(C)ccc1NC(=O)CCl
inhibition [6]: 64.6% | inhibition [7]: 36.9%

CC1=C(Br)/C(=C(\C)Br)OC1=O
inhibition [10]: 16.5% | inhibition [11]: 31.6% | inhibition [12]: 26.9% | inhibition [13]: 45% | IC50 [23]: 17.4 µM | inhibition (INH) [14]: 28.6% | inhibition [15]: 25.8% | inhibition [16]: 58.8%

O=C(Cc1ccc(-c2ccccc2)cc1)N[C@H]1CCOC1=O
IC50 [1]: 0.6 µM

CCCCCCCCCC(=O)CC(=O)Nc1ccc(OC)cc1
inhibition [2]: 73%

NCCCCCCCCCCCCNc1ccnc2cc(Cl)ccc12
IC50 [3]: 69 µM | IC50 [4]: 69 µM | IC50 [24]: 2.5 µM
